According to patent publication US8940722B2, “Compounds for modulation of orphan nuclear receptor RAR-related orphan receptor-gamma (RORγ, NR1F3) activity and for the treatment of chronic inflammatory and autoimmune disease” (Phenex Pharmaceuticals AG, priority 2010, dated 2015):
Several values for one entry are separate records, joined by “and”; a condition that tells them apart may be missing. Identical values can stand only once.

Each compound was assayed against T1, RORγ ligand binding domain (LBD) (Homo sapiens, UniProt P51449) (assay: TR-FRET Activity Assay (RORγ-LBD / coactivator peptide interaction)). Settings: Table 2; read-out: RORγ activity in the TR-FRET Activity Assay (IC50 FRET), Group.
T1 construct: made in house; host or cells: E. coli BL-21 (BL3), vector pDEST15
T1 sequence (P51449 269-508 limits assumed): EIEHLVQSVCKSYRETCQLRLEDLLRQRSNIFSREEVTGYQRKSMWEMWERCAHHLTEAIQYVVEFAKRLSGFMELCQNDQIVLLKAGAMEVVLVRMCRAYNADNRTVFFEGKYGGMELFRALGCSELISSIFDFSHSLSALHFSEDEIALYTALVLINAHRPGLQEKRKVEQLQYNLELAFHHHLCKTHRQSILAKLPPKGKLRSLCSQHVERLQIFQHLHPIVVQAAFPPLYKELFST
Assay type: biochemical
Excerpt: This method measures the ability of putative ligands to modulate the interaction between the purified bacterial expressed RORγ ligand binding domain (LBD) and synthetic N-terminally biotinylated peptides which are derived from nuclear receptor coactivator proteins such as but not limited to SRC1 (NcoA1), SRC2 (NcoA2, TIF2), SRC3 (NcoA3), PGC1α, PGC1β, CBP, GRIP1, TRAP220, RIP140.
The ligand-binding domain (LBD) of RORγ was expressed as fusion protein with GST in […] cells using the vector pDEST15. Cells were lysed by lysozyme-treatment and sonication, and the fusion proteins purified over glutathione sepharose (Pharmacia) according to the manufacturers instructions. For screening of compounds for their influence on the RORγ-peptide interaction, the LANCE technology (Perkin Elmer) was applied. This method relies on the binding dependent energy transfer from a donor to an acceptor fluorophor attached to the binding partner of interest. For ease of handling and reduction of background from compound fluorescence LANCE technology makes use of generic fluorophore labels and time resolved detection assays were done in a final volume of 25 μL in a 384 well plate, in a Tris-based buffer system (20 mM Tris-HCl pH6.8; 60 mM KCl, 1 mM DTT; 5 mM MgCl2; 35 ng/μL BSA), containing 20-60 ng/well recombinantly expressed RORγ-LBD fused to GST, 200-600 nM N-terminally biotinylated peptide, 200 ng/well Streptavidin-xIAPC conjugate (Prozyme) and 6-10 ng/well Eu W1024—antiGST (Perkin Elmer). DMSO content of the samples was kept at 1%.
After generation of the Tris-based buffer system, the potentially RORγ modulating ligands were diluted. […] The LANCE signal was detected by a Perkin Elmer EnVision™ Multilabel Counter. The results were visualized by plotting the ratio between the emitted light at 665 nm and 615 nm. […] Ligands that promote the complex formation induce a concentration-dependent increase in time-resolved fluorescent signal.
To assess the antagonistic potential of the compounds, IC50 values were determined using a Ligand Sensing Assay based on Time-resolved Fluorescence Energy Transfer (TR-FRET) as described above. The normalised TR-FRET assay values, using the following equation: 1000*665 nm measurement value/615 nm measurement value, were transferred to the program GraphPad Prism to generate graphs and dose response curves using the following equation: • Equation: Sigmoidal dose-response (variable slope) Y=Bottom+(Top−Bottom)/(1+10^((Log EC50−X)*HillSlope))
This is identical to the “four parameter logistic equation”. The IC50 values are calculated using this equation.
For COc1ccccc1S(=O)(=O)N1Cc2cc(F)ccc2COCC1Cc1ccccc1 (stereo not drawn) [1/33], the IC50 was > 2 µM. COc1ccccc1S(=O)(=O)N1Cc2ccccc2COCC1Cc1cccc(-c2cncnc2)c1 (stereo not drawn) [5/5] was tested, and the IC50 was > 2 µM. O=S(=O)(c1c(Cl)ccc2nonc12)N1Cc2ccccc2COCC1Cc1ccccc1 (stereo not drawn) [1/11] gave an IC50 of 0.5 to 2 µM. For O=S(=O)(c1ccccc1F)N1Cc2ccccc2COCC1Cc1ccccc1 (stereo not drawn) [1/14], the IC50 was < 0.5 µM. For Cc1ccc2nsnc2c1S(=O)(=O)N1Cc2ccccc2COCC1Cc1ccccc1 (stereo not drawn) [1/13], the IC50 was 0.5 to 2 µM. CCOc1ccc(F)cc1S(=O)(=O)N1Cc2cccnc2COC[C@H]1COC(C)(C)C [6/3] showed an IC50 of 0.5 to 2 µM. For COc1ccccc1S(=O)(=O)N1Cc2ccccc2CS(=O)(=O)CC1Cc1ccccc1 (stereo not drawn) [compound 29], the IC50 was > 2 µM. With COc1ccc(S(=O)(=O)N2Cc3ccccc3COCC2Cc2ccccc2)cc1 (stereo not drawn) [1/29] the IC50 was > 2 µM. In the case of COc1ccccc1S(=O)(=O)N1Cc2ccccc2COCC1Cc1ccc(F)cc1 (stereo not drawn) [1/37], the IC50 is reported as 0.5 to 2 µM. For Cc1nnc(C[C@@H]2COCc3ccccc3CN2S(=O)(=O)c2cccc3cccnc23)o1 [Preparative Example 27, (R)-4-((5-Methyl-1,3,4-oxadiazol-2-yl)methyl)-5-(quinolin-8-ylsulfonyl)-3,4,5,6-tetrahydro-1H-benzo[f][1,4]oxazocine], the IC50 was > 2 µM. With Cc1c(F)cccc1S(=O)(=O)N1Cc2ccccc2COCC1Cc1ccccc1 (stereo not drawn) [1/17] the IC50 was 0.5 to 2 µM. For O=S(=O)(c1cc(Cl)sc1Cl)N1Cc2ccccc2COCC1Cc1ccccc1 (stereo not drawn) [1/27], the IC50 was > 2 µM. CC(C)(C)OC[C@@H]1COCc2ncccc2CN1S(=O)(=O)c1cccc2cccnc12 [6/1] was tested, and the IC50 was > 2 µM. For Cc1nc(S(=O)(=O)N2Cc3ccccc3COCC2Cc2ccccc2)cn1C (stereo not drawn) [1/30], the IC50 was > 2 µM. In the case of COc1ccccc1S(=O)(=O)N1Cc2ccccc2COCC1CC(C)C (stereo not drawn) [1/41], the IC50 is reported as 0.5 to 2 µM. In the case of COc1ccc(F)cc1S(=O)(=O)N1Cc2ccccc2COCC1Cc1ccccc1 (stereo not drawn) [1/5], the IC50 is reported as < 0.5 µM. Compound O=S(=O)(c1cccc2cccnc12)N1Cc2ccccc2COC[C@H]1Cc1cccnc1 [compound 7] has an IC50 of 0.5 to 2 µM. O=S(=O)(c1c(F)cccc1F)N1Cc2ccccc2COCC1Cc1ccccc1 (stereo not drawn) [1/22] was tested, and the IC50 was < 0.5 µM. For O=S(=O)(c1cc(C(F)(F)F)ccc1F)N1Cc2ccccc2COCC1Cc1ccccc1 (stereo not drawn) [1/24], the IC50 was < 0.5 µM. For O=S(=O)(c1cccc2nsnc12)N1Cc2ccccc2COCC1Cc1ccccc1 (stereo not drawn) [1/12], the IC50 was < 0.5 µM. With COc1ccc(Cl)cc1S(=O)(=O)N1Cc2ccccc2COCC1Cc1ccccc1 (stereo not drawn) [1/6] the IC50 was < 0.5 µM. For COc1ccccc1S(=O)(=O)N1Cc2ccccc2COC[C@H]1Cc1ccccc1 [1/2], the IC50 was < 0.5 µM and > 2 µM. COc1ccccc1S(=O)(=O)N1Cc2ccccc2COCC1Cc1cccc(Br)c1 (stereo not drawn) [3/2] was tested, and the IC50 was < 0.5 µM. With COc1ccccc1S(=O)(=O)N1Cc2ccc(F)cc2COCC1Cc1ccccc1 (stereo not drawn) [1/35] the IC50 was > 2 µM. In the case of COc1cccc(-c2cccc(CC3COCc4ccccc4CN3S(=O)(=O)c3ccccc3OC)c2)n1 (stereo not drawn) [5/6], the IC50 is reported as > 2 µM. CN1Cc2ccccc2CN(S(=O)(=O)c2cccc3cccnc23)[C@H](Cc2ccccc2)C1=O [compound 9] was tested, and the IC50 was > 2 µM. For CC(C)(C)OC[C@@H]1COCc2ncccc2CN1S(=O)(=O)c1ccccc1OC(F)(F)F [6/2], the IC50 was < 0.5 µM. With N#Cc1ccc(Cl)cc1S(=O)(=O)N1Cc2ccccc2COCC1Cc1ccccc1 (stereo not drawn) [1/19] the IC50 was < 0.5 µM. COc1ccccc1S(=O)(=O)N1Cc2ccccc2COCC1Cc1ccc(Br)cc1 (stereo not drawn) [compound 3] was tested, and the IC50 was > 2 µM. For Cc1ccc(Cl)cc1S(=O)(=O)N1Cc2ccccc2COCC1Cc1ccccc1 (stereo not drawn) [1/20], the IC50 was 0.5 to 2 µM. In the case of O=S(=O)(c1cc(F)ccc1N1CCOCC1)N1Cc2ccccc2COCC1Cc1ccccc1 (stereo not drawn) [compound 12], the IC50 is reported as > 2 µM. In the case of COc1ccccc1S(=O)(=O)N1Cc2cccc(OC)c2COCC1Cc1ccccc1 (stereo not drawn) [1/36], the IC50 is reported as 0.5 to 2 µM. With CN(C)C(=O)C[C@@H]1COCc2ccccc2CN1S(=O)(=O)c1cccc2cccnc12 [Preparative Example 26, (R)—N,N-Dimethyl-2-(5-(quinolin-8-ylsulfonyl)-3,4,5,6-tetrahydro-1H-benzo[f][1,4]oxazocin-4-yl)acetamide] the IC50 was > 2 µM. In the case of O=S(=O)(c1cc(F)ccc1OCCN1CCOCC1)N1Cc2ccccc2COCC1Cc1ccccc1 (stereo not drawn) [Preparative Example 11], the IC50 is reported as > 2 µM. O=S(=O)(c1ccccc1C(F)(F)F)N1Cc2ccccc2COCC1Cc1ccccc1 (stereo not drawn) [1/25] showed an IC50 of 0.5 to 2 µM. With Cc1nn(C)c(Cl)c1S(=O)(=O)N1Cc2ccccc2COCC1Cc1ccccc1 (stereo not drawn) [1/32] the IC50 was > 2 µM. O=S(=O)(c1cccc2cccnc12)N1Cc2ccccc2CCCC1Cc1ccccc1 (stereo not drawn) [compound 30] was tested, and the IC50 was 0.5 to 2 µM. COCCOC[C@@H]1COCc2ccccc2CN1S(=O)(=O)c1cccc2cccnc12 [16/2] was tested, and the IC50 was > 2 µM. For COc1ccccc1S(=O)(=O)N1Cc2ccccc2COCC1Cc1ccc(C#N)cc1 (stereo not drawn) [5/4], the IC50 was > 2 µM. In the case of O=S(=O)(c1ccccc1OC(F)(F)F)N1Cc2nncn2CCC[C@H]1Cc1ccccc1 [31/1], the IC50 is reported as 0.5 to 2 µM. Work on COc1ccccc1S(=O)(=O)N1Cc2ccccc2OCCC1Cc1ccccc1 (stereo not drawn) [compound 4] yielded an IC50 of 0.5 to 2 µM. With COc1ccccc1S(=O)(=O)N1Cc2c(cccc2OC)COCC1Cc1ccccc1 (stereo not drawn) [5/1] the IC50 was > 2 µM. O=S(=O)(c1cccc2cccnc12)N1Cc2cccc(O)c2COCC1Cc1ccccc1 (stereo not drawn) [compound 13] was tested, and the IC50 was > 2 µM. With COC(=O)c1ccccc1S(=O)(=O)N1Cc2ccccc2COCC1Cc1ccccc1 (stereo not drawn) [1/39] the IC50 was 0.5 to 2 µM. For CC(C)(C)OC[C@@H]1COCc2ncccc2CN1S(=O)(=O)c1cccc2c1OCC2 [6/5], the IC50 was 0.5 to 2 µM. With Cn1cnc(S(=O)(=O)N2Cc3ccccc3COCC2Cc2ccccc2)c1Cl (stereo not drawn) [1/31] the IC50 was > 2 µM. For O=S(=O)(c1cccc2cccnc12)N1Cc2cccnc2COC[C@H]1Cc1ccccc1 [compound 6], the IC50 was < 0.5 µM. O=S(=O)(c1cccc2cccnc12)N1Cc2ccccc2COC[C@H]1Cn1cccn1 [Preparative Example 17, (R)-4-((1H-Pyrazol-1-yl)methyl)-5-(quinolin-8-ylsulfonyl)-3,4,5,6-tetrahydro-1H-benzo[f][1,4]oxazocine] was tested, and the IC50 was > 2 µM. In the case of COC[C@@H]1COCc2ccccc2CN1S(=O)(=O)c1cccc2cccnc12 [Preparative Example 16, (R)-4-(Methoxymethyl)-5-(quinolin-8-ylsulfonyl)-3,4,5,6-tetrahydro-1H-benzo[f][1,4]oxazocine], the IC50 is reported as > 2 µM. With C=CC[C@@H]1COCc2ccccc2CN1S(=O)(=O)c1cccc2cccnc12 [Preparative Example 18, (R)-4-Allyl-5-(quinolin-8-ylsulfonyl)-3,4,5,6-tetrahydro-1H-benzo[f][1,4]oxazocine] the IC50 was 0.5 to 2 µM. For CC(C)(C)OC[C@@H]1COCc2ccccc2CN1S(=O)(=O)c1cccc2cccnc12 [Preparative Example 14, (S)-4-(tert-Butoxymethyl)-5-(quinolin-8-ylsulfonyl)-3,4,5,6-tetrahydro-1H-benzo[f][1,4]oxazocine], the IC50 was < 0.5 µM. O=S(=O)(c1cccc2cccnc12)N1Cc2ccccc2COC[C@H]1COCc1ccccc1 [16/1] showed an IC50 of 0.5 to 2 µM. COc1ccccc1S(=O)(=O)N1Cc2ccccc2CN(C)CC1Cc1ccccc1 (stereo not drawn) [Preparative Example 2, 3-Benzyl-2-(2-methoxyphenylsulfonyl)-5-methyl-1,2,3,4,5,6-hexahydrobenzo-[f][1,4]-diazocine] showed an IC50 of 0.5 to 2 µM. For O=S(=O)(c1cccc2nonc12)N1Cc2ccccc2COCC1Cc1ccccc1 (stereo not drawn) [1/10], the IC50 was < 0.5 µM.
